Values joined by “and” are separate entries in the source; they are usually repeats but may differ in a detail not shown here. Identical values can stand only once.
Tested on: kidney tissues of treated or untreated rats
Test: Real-time qRT-PCR of marker transcripts in kidney tissue panel, discovery stage (Table 22)
Type: in vivo, rat
Design: AI502869_DB71_seg0 normalized Real Time PCR expression: unit not given beside the values
Details: rat kidney, listed as Cis
Procedure: Before RT preparation the RNA was treated with DNA-free (Ambion, cat. No. AM1906) DNase treatment and removal—according to manufacturer protocol. DNase procedure was repeated until no DNA is detected in a PCR reaction using the RNA samples.
The mixture is then incubated for 5 min at 65° C. and then quickly chilled on ice. Thereafter, 20 μl of 5× SuperscriptII first strand buffer (Invitrogen, Cat. No. Y00146), 9.6 μl 0.1M DTT (Invitrogen, Cat. No. Y00147) and 160 units RNasin (Promega, Cat. No. N251A) are added, and the mixture is incubated for 10 min at 25° C., followed by further incubation at 42° C. for 2 min. […] The resulting cDNA is diluted 1:20 in TE buffer (10 mM Tris pH=8, 1 mM EDTA pH=8).
cDNA (5 μl), prepared as described above, is used as a template in Real-Time PCR reactions using the SYBR Green I assay (PE Applied Biosystem) with specific primers in 100 nM concentration if not indicated otherwise and UNG Enzyme (Eurogentech or equal) Amplification is effected as follows: 50° C. for 2 min, 95° C. for 10 min, and then 40 cycles of 95° C. for 15 sec, followed by 60° C. for 1 min (if not indicated otherwise). Amplification step is followed by dissociation step. Detection is performed by using the PE Applied Biosystem SDS 7000. The cycle in which the reactions achieved a threshold level (Ct) of fluorescence is registered and is used to calculate the relative transcript quantity in the RT reactions. Non-detected samples are assigned Ct value of 41 and are calculated accordingly. The relative quantity is calculated using the equation Q=efficiencŷ-Ct. The efficiency of the PCR reaction is calculated from a standard curve, created by using serial dilutions of several reverse transcription (RT) reactions. To minimize inherent differences in the RT reaction, the resulting relative quantities are normalized to normalization factor calculated as follows: […]
The relative quantity (Q) of each housekeeping gene in each sample is calculated as described above. In order to calculate the “relative Q relative to MED” each Q for each HSKP gene is divided by the median quantity of this gene in all panel samples. To finally achieve the normalization factor of each sample the geometric mean of all four “relative Q relative to MED” was calculated. The normalization factor was then used for further calculations.
The markers of the present invention were tested with regard to their expression in a panel of kidney tissues samples from treated and control rats. Unless otherwise noted, all experimental data relates to the novel polynucleotides and proteins of the present invention, named according to the segment being tested (as expression was tested through RT-PCR as described). Tests were then performed as described in the “Materials and Experimental Procedures” section above.
The qRT-PCR measurements were normalized according to each samples normalization factor as described in “RT Preparation and Real-Time qRT-PCR Analysis” and further multiplied by a constant factor for ease of viewing.

[1] = day5, individual animals (F and M)
[2] = day28, individual animals (F and M)

N.N.[Cl][Pt][Cl] [Cisplatin]
AW919147_DB71_seg0 normalized Real Time PCR expression (day1, individual animals): 0.8 and 1.09 and 0.87 (2×) and 0.88
BI293562_DB71_seg2 normalized Real Time PCR expression (day1, individual animals): 0.74 and 0.5 and 0.38 and 0.7 and 0.39 and 0.71
H31045_DB71_seg5 normalized Real Time PCR expression (day1, individual animals): 0.24 and 0.28 and 0.22 and 0.82 and 0.21 and 1.22
H31799_DB71_seg23 normalized Real Time PCR expression (day1, individual animals): 1.03 and 1.09 and 1.22
H31883_DB71_seg13 normalized Real Time PCR expression (day1, individual animals): 2.03 and 0.74 and 0.71 and 1.52
H33998_DB71_seg19 normalized Real Time PCR [1]: 1.79 and 1.84 and 1.95 and 1.49 and 0.46 and 2.14
MUSCYCG1R_DB81_seg15-17 normalized Real Time PCR [1]: 3.12 and 3.59 and 2.07 and 2.31 and 0.92 and 2.34
RATLRFI_DB71_seg9 normalized Real Time PCR [1]: 0.79 and 0.44 and 0.32 and 0.65 and 0.34 and 1.97
RATRAB13X_DB71_seg11-13 normalized Real Time PCR [1]: 1.01 and 1.02 and 0.74
RNU24174_DB71_seg8 normalized Real Time PCR [1]: 0.97 and 0.7 and 0.6 and 1.3 and 0.31 and 3.6
W41270_DB81_seg11 normalized Real Time PCR [1]: 1.97 and 1.9 and 1.79 and 1.51 and 3.12
W64472_DB81_seg2 normalized Real Time PCR [1]: 2.23 and 2.1 and 1.99 and 2.64 and 0.95 and 4.55
W83813_DB81_seg27 normalized Real Time PCR [1]: 2.12 (2×) and 2.25 and 1.39 and 0.94 and 1.41
AA686189_DB71_seg6 normalized Real Time PCR expression (day5, individual animals): 0.93 and 0.76 and 1.5 and 0.69 and 4.48
AA799594_DB71_seg0 normalized Real Time PCR expression (day5, individual animals): 1.34 and 1.11 and 0.93 and 0.71 and 0.75
AA964541_DB71_seg0 normalized Real Time PCR expression (day5, individual animals): 0.99 and 0.74 and 0.76 and 1.94 and 0.67 and 4.8
AI045075_DB71_seg6 normalized Real Time PCR expression (day5, individual animals): 0.86 and 0.53 and 0.76 and 1.93 and 0.81 and 1.33
AI454051_DB71_seg0 normalized Real Time PCR expression (day5, individual animals): 1.43 and 1.39 and 0.92 and 0.86
AI502869_DB71_seg0 normalized Real Time PCR expression (day5, individual animals): 0.8 and 0.93 and 0.74 and 0.52 and 0.61
AW919147_DB71_seg0 normalized Real Time PCR expression (day5, individual animals): 1.39 and 0.83 and 0.8 and 0.88
BI293562_DB71_seg2 normalized Real Time PCR expression (day5, individual animals): 0.74 and 0.67 and 0.7 and 3.45 and 0.81 and 1.76
H31045_DB71_seg5 normalized Real Time PCR expression (day5, individual animals): 1.8 and 0.34 and 0.51 and 3.25 and 0.23 and 1.66
H31799_DB71_seg23 normalized Real Time PCR expression (day5, individual animals): 1.1 and 0.74 and 1.23 and 0.92
H31883_DB71_seg13 normalized Real Time PCR expression (day5, individual animals): 1.44 and 1.2 and 1.73 and 1.3 and 2.43
H33998_DB71_seg19 normalized Real Time PCR [2]: 0.55 and 0.69 and 0.85 and 0.61 and 0.62 and 0.41
MUSCYCG1R_DB81_seg15-17 normalized Real Time PCR [2]: 1.96 and 2.57 and 2.7 and 2.09 and 2.31 and 1.93
RATLRFI_DB71_seg9 normalized Real Time PCR [2]: 2.33 and 3.05 and 3.8 and 3.03 and 2.4 and 2.26
RATRAB13X_DB71_seg11-13 normalized Real Time PCR [2]: 1.62 and 1.78 and 1.57 and 1.24 and 1.31
RNU24174_DB71_seg8 normalized Real Time PCR [2]: 8.38 and 12.63 and 12.14 and 10.21 and 7.3 and 8.08
W41270_DB81_seg11 normalized Real Time PCR [2]: 1.45 (2×) and 1.8 and 1.48 and 1.94 and 1.11
W64472_DB81_seg2 normalized Real Time PCR [2]: 1.81 and 3.16 and 2.87 and 2.8 and 3.04 and 1.65
W83813_DB81_seg27 normalized Real Time PCR [2]: 0.71 and 0.7 and 0.78 and 0.51 (2×) and 0.57
AA686189_DB71_seg6 normalized Real Time PCR expression (day28, individual animals): 0 and 3.57 and 6.06 and 3.15 and 4.29 and 3.86
AA799594_DB71_seg0 normalized Real Time PCR expression (day28, individual animals): 0.74 and 0.64 and 0.52 and 0.36 and 0.97 and 0.62
AA964541_DB71_seg0 normalized Real Time PCR expression (day28, individual animals): 2.63 and 5.28 and 6.85 and 3.72 and 4.71 and 3.97
AI045075_DB71_seg6 normalized Real Time PCR expression (day28, individual animals): 2.17 and 3.09 and 3.37 and 3.18 and 2.72 and 1.57
AI454051_DB71_seg0 normalized Real Time PCR expression (day28, individual animals): 0.68 and 0.8 and 0.87 and 0.73 and 0.82 and 0.78
AI502869_DB71_seg0 normalized Real Time PCR expression (day28, individual animals): 1.03 (2×) and 0.74 and 1.35 and 0.95
AW919147_DB71_seg0 normalized Real Time PCR expression (day28, individual animals): 0.54 (2×) and 0.72 and 0.66 and 0.84
BI293562_DB71_seg2 normalized Real Time PCR expression (day28, individual animals): 5.98 and 12.27 and 8.01 and 6.24 and 2.93 and 3.33
H31045_DB71_seg5 normalized Real Time PCR expression (day28, individual animals): 0.73 (2×) and 0.81 and 0.88 and 2.92 and 2.96
H31799_DB71_seg23 normalized Real Time PCR expression (day28, individual animals): 1.15 and 0.98 and 0.88 and 0.9
H31883_DB71_seg13 normalized Real Time PCR expression (day28, individual animals): 2.72 and 4.07 and 3.83 and 2.41 and 3.37 and 2.23

Reference: patent US20160177395A1, “BIOMARKERS FOR THE PREDICTION OF RENAL INJURY” (priority 2007, published 2016)
